{"source": "paper PMC7884382", "about": "“A Phase 1 study of RO6870810, a novel bromodomain and extra-terminal protein inhibitor, in patients with NUT carcinoma, other solid tumours, or diffuse large B-cell lymphoma” (British Journal of Cancer, 2020)", "note": "Where two headings read alike, the source gives them in different places.", "description": "Patients were considered evaluable for safety if they received ≥1 injection of the study drug. All adverse events (AEs) were graded per the National Cancer Institute’s Common Terminology Criteria for Adverse Events (CTCAE) version 4.03.\nGrade ≤3 drug-related fever or skin or SC tissue disorders localised to the site of injection—including grade ≤3 rash, pruritus, skin induration or pain—were not considered DLTs.\nData for patients with NC and lymphoma were evaluated but not included in the MTD determination."}
{"compound": "Cc1sc2c(c1C)C(c1ccc(Cl)cc1)=N[C@@H](CC(=O)NCCCN1CCN(C)CC1)c1nnc(C)n1-2", "note": "[RO6870810]", "values": [{"measurement": "Death due to AE", "setting": "DLBCL (n = 19)", "value": "3 (15.8) n (%)"}, {"measurement": "Death due to treatment-related AE", "setting": "DLBCL (n = 19)", "value": "0 n (%)"}, {"measurement": "Death due to AE", "setting": "NC (n = 8)", "value": "3 (37.5) n (%)"}, {"measurement": "Death due to treatment-related AE", "setting": "NC (n = 8)", "value": "0 n (%)"}, {"measurement": "Death due to AE", "setting": "Solid tumours (n = 47)", "value": "2 (4.3) n (%)"}, {"measurement": "Death due to treatment-related AE", "setting": "Solid tumours (n = 47)", "value": "0 n (%)"}, {"measurement": "Treatment-related grade 5 AEs", "setting": "all patients", "value": "No treatment-related grade 5 AEs occurred"}, {"measurement": "Grade 3/4 treatment-related AE: anaemia", "setting": "human, in vivo", "value": 8, "unit": "%"}, {"measurement": "Grade 3/4 treatment-related AE: fatigue", "setting": "human, in vivo", "value": 10, "unit": "%"}, {"measurement": "Grade 3/4 treatment-related AE: hyperbilirubinemia", "setting": "human, in vivo", "value": 5, "unit": "%"}, {"measurement": "Grade 3/4 treatment-related AE: thrombocytopenia", "setting": "human, in vivo", "value": 10, "unit": "%"}, {"measurement": "Incidence of treatment-related thrombocytopenia", "setting": "human, in vivo", "value": 12, "unit": "%"}, {"measurement": "Treatment-emergent AE: Abdominal pain", "setting": "human, in vivo", "value": "13 (17.6) n (%)"}, {"measurement": "Treatment-emergent AE: Anemia", "setting": "human, in vivo", "value": "20 (27.0) n (%)"}, {"measurement": "Treatment-emergent AE: Back pain", "setting": "human, in vivo", "value": "13 (17.6) n (%)"}, {"measurement": "Treatment-emergent AE: Blood bilirubin increased", "setting": "human, in vivo", "value": "14 (18.9) n (%)"}, {"measurement": "Treatment-emergent AE: Constipation", "setting": "human, in vivo", "value": "14 (18.9) n (%)"}, {"measurement": "Treatment-emergent AE: Cough", "setting": "human, in vivo", "value": "10 (13.5) n (%)"}, {"measurement": "Treatment-emergent AE: Decreased appetite", "setting": "human, in vivo", "value": "38 (51.4) n (%)"}, {"measurement": "Treatment-emergent AE: Dehydration", "setting": "human, in vivo", "value": "13 (17.6) n (%)"}, {"measurement": "Treatment-emergent AE: Diarrhea", "setting": "human, in vivo", "value": "26 (35.1) n (%)"}, {"measurement": "Treatment-emergent AE: Dizziness", "setting": "human, in vivo", "value": "10 (13.5) n (%)"}, {"measurement": "Treatment-emergent AE: Dry mouth", "setting": "human, in vivo", "value": "11 (14.9) n (%)"}, {"measurement": "Treatment-emergent AE: Dysgeusia", "setting": "human, in vivo", "value": "20 (27.0) n (%)"}, {"measurement": "Treatment-emergent AE: Dyspnea", "setting": "human, in vivo", "value": "12 (16.2) n (%)"}, {"measurement": "Treatment-emergent AE: Fatigue", "setting": "human, in vivo", "value": "43 (58.1) n (%)"}, {"measurement": "Treatment-emergent AE: Headache", "setting": "human, in vivo", "value": "12 (16.2) n (%)"}, {"measurement": "Treatment-emergent AE: Hypomagnesaemia", "setting": "human, in vivo", "value": "10 (13.5) n (%)"}, {"measurement": "Treatment-emergent AE: Injection site erythema", "setting": "human, in vivo", "value": "26 (35.1) n (%)"}, {"measurement": "Treatment-emergent AE: Injection site induration", "setting": "human, in vivo", "value": "21 (28.4) n (%)"}, {"measurement": "Treatment-emergent AE: Injection site pain", "setting": "human, in vivo", "value": "25 (33.8) n (%)"}, {"measurement": "Treatment-emergent AE: Injection site pruritus", "setting": "human, in vivo", "value": "15 (20.3) n (%)"}, {"measurement": "Treatment-emergent AE: Injection site reaction", "setting": "human, in vivo", "value": "10 (13.5) n (%)"}, {"measurement": "Treatment-emergent AE: Injection site swelling", "setting": "human, in vivo", "value": "10 (13.5) n (%)"}, {"measurement": "Treatment-emergent AE: Malaise", "setting": "human, in vivo", "value": "16 (21.6) n (%)"}, {"measurement": "Treatment-emergent AE: Myalgia", "setting": "human, in vivo", "value": "12 (16.2) n (%)"}, {"measurement": "Treatment-emergent AE: Nausea", "setting": "human, in vivo", "value": "32 (43.2) n (%)"}, {"measurement": "Treatment-emergent AE: Thrombocytopenia", "setting": "human, in vivo", "value": "10 (13.5) n (%)"}, {"measurement": "Treatment-emergent AE: Vomiting", "setting": "human, in vivo", "value": "28 (37.8) n (%)"}, {"measurement": "Treatment-emergent AE: Weight decreased", "setting": "human, in vivo", "value": "9 (12.2) n (%)"}, {"measurement": "Treatment-related AE of any grade: decreased appetite", "setting": "human, in vivo", "value": 35, "unit": "%"}, {"measurement": "Treatment-related AE of any grade: fatigue", "setting": "human, in vivo", "value": 42, "unit": "%"}, {"measurement": "Treatment-related AE of any grade: injection-site erythema", "setting": "human, in vivo", "value": 35, "unit": "%"}, {"measurement": "Treatment-related AE of any grade: injection-site pain", "setting": "human, in vivo", "value": 32, "unit": "%"}, {"measurement": "Treatment-related AE of any grade: nausea", "setting": "human, in vivo", "value": 31, "unit": "%"}, {"measurement": "Treatment-related AE: Cardiomyopathy", "setting": "human, in vivo", "value": "1 (1.4) n (%)"}, {"measurement": "Treatment-related AE: Cholestasis", "setting": "human, in vivo", "value": "1 (1.4) n (%)"}, {"measurement": "Treatment-related AE: Dyspnoea", "setting": "human, in vivo", "value": "1 (1.4) n (%)"}, {"measurement": "Treatment-related AE: Hepatic enzyme increased", "setting": "human, in vivo", "value": "1 (1.4) n (%)"}, {"measurement": "Treatment-related AE: Neutropenia", "setting": "human, in vivo", "value": "1 (1.4) n (%)"}, {"measurement": "Treatment-related AE: Peritoneal haemorrhage", "setting": "human, in vivo", "value": "1 (1.4) n (%)"}, {"measurement": "Treatment-emergent AE: Abdominal pain", "setting": "human, in vivo, 0.03 mg/kg", "value": "1 (33.3) n (%)"}, {"measurement": "Treatment-emergent AE: Anemia", "setting": "human, in vivo, 0.03 mg/kg", "value": "0 n (%)"}, {"measurement": "Treatment-emergent AE: Back pain", "setting": "human, in vivo, 0.03 mg/kg", "value": "0 n (%)"}, {"measurement": "Treatment-emergent AE: Blood bilirubin increased", "setting": "human, in vivo, 0.03 mg/kg", "value": "0 n (%)"}, {"measurement": "Treatment-emergent AE: Constipation", "setting": "human, in vivo, 0.03 mg/kg", "value": "0 n (%)"}, {"measurement": "Treatment-emergent AE: Cough", "setting": "human, in vivo, 0.03 mg/kg", "value": "0 n (%)"}, {"measurement": "Treatment-emergent AE: Decreased appetite", "setting": "human, in vivo, 0.03 mg/kg", "value": "0 n (%)"}, {"measurement": "Treatment-emergent AE: Dehydration", "setting": "human, in vivo, 0.03 mg/kg", "value": "0 n (%)"}, {"measurement": "Treatment-emergent AE: Diarrhea", "setting": "human, in vivo, 0.03 mg/kg", "value": "1 (33.3) n (%)"}, {"measurement": "Treatment-emergent AE: Dizziness", "setting": "human, in vivo, 0.03 mg/kg", "value": "0 n (%)"}, {"measurement": "Treatment-emergent AE: Dry mouth", "setting": "human, in vivo, 0.03 mg/kg", "value": "0 n (%)"}, {"measurement": "Treatment-emergent AE: Dysgeusia", "setting": "human, in vivo, 0.03 mg/kg", "value": "0 n (%)"}, {"measurement": "Treatment-emergent AE: Dyspnea", "setting": "human, in vivo, 0.03 mg/kg", "value": "0 n (%)"}, {"measurement": "Treatment-emergent AE: Fatigue", "setting": "human, in vivo, 0.03 mg/kg", "value": "0 n (%)"}, {"measurement": "Treatment-emergent AE: Headache", "setting": "human, in vivo, 0.03 mg/kg", "value": "0 n (%)"}, {"measurement": "Treatment-emergent AE: Hypomagnesaemia", "setting": "human, in vivo, 0.03 mg/kg", "value": "1 (33.3) n (%)"}, {"measurement": "Treatment-emergent AE: Injection site erythema", "setting": "human, in vivo, 0.03 mg/kg", "value": "2 (66.7) n (%)"}, {"measurement": "Treatment-emergent AE: Injection site induration", "setting": "human, in vivo, 0.03 mg/kg", "value": "1 (33.3) n (%)"}, {"measurement": "Treatment-emergent AE: Injection site pain", "setting": "human, in vivo, 0.03 mg/kg", "value": "0 n (%)"}, {"measurement": "Treatment-emergent AE: Injection site pruritus", "setting": "human, in vivo, 0.03 mg/kg", "value": "3 (100) n (%)"}, {"measurement": "Treatment-emergent AE: Injection site reaction", "setting": "human, in vivo, 0.03 mg/kg", "value": "0 n (%)"}, {"measurement": "Treatment-emergent AE: Injection site swelling", "setting": "human, in vivo, 0.03 mg/kg", "value": "1 (33.3) n (%)"}, {"measurement": "Treatment-emergent AE: Malaise", "setting": "human, in vivo, 0.03 mg/kg", "value": "1 (33.3) n (%)"}, {"measurement": "Treatment-emergent AE: Myalgia", "setting": "human, in vivo, 0.03 mg/kg", "value": "1 (33.3) n (%)"}, {"measurement": "Treatment-emergent AE: Nausea", "setting": "human, in vivo, 0.03 mg/kg", "value": "1 (33.3) n (%)"}, {"measurement": "Treatment-emergent AE: Thrombocytopenia", "setting": "human, in vivo, 0.03 mg/kg", "value": "0 n (%)"}, {"measurement": "Treatment-emergent AE: Vomiting", "setting": "human, in vivo, 0.03 mg/kg", "value": "0 n (%)"}, {"measurement": "Treatment-emergent AE: Abdominal pain", "setting": "human, in vivo, 0.06 mg/kg", "value": "1 (33.3) n (%)"}, {"measurement": "Treatment-emergent AE: Anemia", "setting": "human, in vivo, 0.06 mg/kg", "value": "0 n (%)"}, {"measurement": "Treatment-emergent AE: Back pain", "setting": "human, in vivo, 0.06 mg/kg", "value": "0 n (%)"}, {"measurement": "Treatment-emergent AE: Blood bilirubin increased", "setting": "human, in vivo, 0.06 mg/kg", "value": "0 n (%)"}, {"measurement": "Treatment-emergent AE: Constipation", "setting": "human, in vivo, 0.06 mg/kg", "value": "1 (33.3%) n (%)"}, {"measurement": "Treatment-emergent AE: Cough", "setting": "human, in vivo, 0.06 mg/kg", "value": "0 n (%)"}, {"measurement": "Treatment-emergent AE: Decreased appetite", "setting": "human, in vivo, 0.06 mg/kg", "value": "0 n (%)"}, {"measurement": "Treatment-emergent AE: Dehydration", "setting": "human, in vivo, 0.06 mg/kg", "value": "0 n (%)"}, {"measurement": "Treatment-emergent AE: Diarrhea", "setting": "human, in vivo, 0.06 mg/kg", "value": "0 n (%)"}, {"measurement": "Treatment-emergent AE: Dizziness", "setting": "human, in vivo, 0.06 mg/kg", "value": "0 n (%)"}, {"measurement": "Treatment-emergent AE: Dry mouth", "setting": "human, in vivo, 0.06 mg/kg", "value": "0 n (%)"}, {"measurement": "Treatment-emergent AE: Dysgeusia", "setting": "human, in vivo, 0.06 mg/kg", "value": "0 n (%)"}, {"measurement": "Treatment-emergent AE: Dyspnea", "setting": "human, in vivo, 0.06 mg/kg", "value": "0 n (%)"}, {"measurement": "Treatment-emergent AE: Fatigue", "setting": "human, in vivo, 0.06 mg/kg", "value": "2 (66.7) n (%)"}, {"measurement": "Treatment-emergent AE: Headache", "setting": "human, in vivo, 0.06 mg/kg", "value": "0 n (%)"}, {"measurement": "Treatment-emergent AE: Hypomagnesaemia", "setting": "human, in vivo, 0.06 mg/kg", "value": "0 n (%)"}, {"measurement": "Treatment-emergent AE: Injection site erythema", "setting": "human, in vivo, 0.06 mg/kg", "value": "1 (33.3) n (%)"}]}
